Test results taken from PubChem BioAssay AID179 (DTP/NCI, 2004).
Active and inactive are the calls of the source.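 How the source made its calls: active means compounds giving half or more protection of infected cells from virus-caused growth loss, again on retest; inactive means the rest.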 Where a SMILES comes first, the peptide text is derived from it. [ ]: non-standard residue; d: D form. The star is where a group is joined. Phe(4-Cl) = N[CH](Cc1ccc(Cl)cc1)C(=O)O; 2Nal = N[CH](Cc1ccc2ccccc2c1)C(=O)O; 3Pal = N[CH](Cc1cccnc1)C(=O)O; OSu = O=C1CCC(=O)N1O*

System: CEM cells HIV-1 protection, formazan growth assay
Assay: NCI AIDS Antiviral Assay
Conditions: for IC50: measured here: growth of uninfected CEM cells
In short: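 Steps: treat uninfected and HIV-1-infected human CEM cells at five drug levels; quantify growth by soluble formazan; retest any compound reaching 50% protection; classify actives from the retest.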

C/C(=N/NC(N)=S)C(CN1CCOCC1)C(C1=C(O)c2ccccc2OC1)c1ccccc1 (stereo unspecified)
EC50: > 37.2 µM
IC50: > 37.2 µM

BrCCOc1ccc(-c2c3ccccc3c(-c3ccc(OCCBr)cc3)c3ccccc23)cc1
EC50: > 100 µM
IC50: > 100 µM

Cc1cc(C)c(S(=O)(=O)Sc2nnnn2-c2ccccc2)c(C)c1
EC50: > 20 µM
IC50: > 20 µM

CC(C)(C)[Si](C)(C)OCC1OC(n2ccc(=O)[nH]c2=O)C(O[Si](C)(C)C(C)(C)C)C1(O)C/C=N/O (stereo unspecified)
EC50: > 200 µM
IC50: 7.59 µM

Cc1cc(S(=O)(=O)NC(=NCCc2ccccc2)NN)c(S)cc1Cl
EC50: > 200 µM
IC50: 25.7 µM

CC(=O)/C(=C/c1ccccc1[N+](=O)[O-])C(=O)c1ccccc1
EC50: > 24.5 µM
IC50: 2.09 µM

NCCCCC(NC(=O)C(N)Cc1ccc(O)cc1)C(=O)NC(Cc1ccc(O)cc1)C(=O)NC(CCCCN)C(=O)ON1C(=O)CCC1=O (stereo unspecified) (H-YKYK-OSu; configuration not given here)
EC50: > 200 µM
IC50: > 200 µM

CC(=O)O[C@H]1[C@@H]2CC(C)(C)CC2=C(C=O)C2(C=O)CC12C (stereo partly specified)
EC50: > 200 µM
IC50: 13.5 µM

C/C(=N\NC(=S)N(C)C)c1ncc[nH]1
EC50: > 234 µM
IC50: 4.27 µM

CCOC(=O)c1c[nH]c2cc3c(cc2c1=O)CCS3
EC50: > 200 µM
IC50: 115 µM

CC(=O)[O-].O=C([N-]/N=C\c1ccsc1)c1ccncc1.[Ni+2].[OH3+].c1cnc2c(c1)ccc1cccnc12
EC50: > 200 µM
IC50: 47.9 µM

CC(Cc1ccccc1)NC(=O)CCNNC(=O)c1ccncc1 (stereo unspecified)
EC50: > 200 µM
IC50: > 200 µM

COc1ccc2c(=O)c(S)coc2c1
EC50: > 200 µM
IC50: 30.2 µM

COC(=O)Cc1cc(=O)n2c([nH]c3ccccc32)c1C#N
EC50: > 25.7 µM
IC50: > 25.7 µM

C=CCn1c(-c2ccccc2)cs/c1=N\C(P(=O)(O)O)P(=O)(O)O
EC50: > 200 µM
IC50: > 200 µM

O=c1c(=[n+]2ccc(=C([O-])c3ccccc3)cc2)/c(=N/S(=O)(=O)c2ccccc2)c(=O)c2ccccc12
EC50: > 200 µM
IC50: 6.17 µM

CCOC(=O)NC(S(=O)(=O)O)S(=O)(=O)O
EC50: > 200 µM
IC50: > 200 µM

Cn1c(=O)c2c(nc3n2CCCC(=O)N3CCCCl)n(C)c1=O
EC50: > 100 µM
IC50: > 100 µM

CN(N)c1ncnc2c1cnn2C
EC50: > 209 µM
IC50: > 209 µM

O=C(Cc1ccccc1)OCCOCCOCCOCCOCCOCCOCCOCCOCCOC(=O)Cc1ccccc1
outcome: inactive

CCCCCCCCCCCCCCCCCCNC(=S)NC=C(C(N)=O)C(N)=O
EC50: > 100 µM
IC50: > 100 µM

Cc1cc(C)c(C(=O)c2cccc(C)c2C(=O)O)c(C)c1
EC50: > 200 µM
IC50: > 200 µM

CCC1(CC)COP(=O)(Oc2ccccc2)OC1
EC50: > 200 µM
IC50: > 200 µM

Cn1c(=S)c2c(nc(SCCc3ccccc3)n2CCc2ccccc2)n(C)c1=O
EC50: > 200 µM
IC50: 29.5 µM

OC(CCN1CCCCCC1)(Cc1ccccc1)c1ccccc1 (stereo unspecified)
EC50: > 200 µM
IC50: 81.3 µM

COc1ccc(-c2cc(=O)c3c(OC)c(OC)c(OC)c(OC)c3o2)c(OC)c1
EC50: > 200 µM
IC50: 20.4 µM

CC1(C)CC(=O)C(C=NC(=S)C(N)=S)=C(O)C1
EC50: > 200 µM
IC50: 37.2 µM

COc1ccc(OC)c(NC(=O)CCC/C(CC(=O)c2ccc(O)c(OC)c2)=N\Nc2nnc(C)n2N)c1
EC50: > 7.24 µM
IC50: > 7.24 µM

CN(C)C1=CC(=O)C(=O)c2cnc(N(C)C)cc21
outcome: inactive

COc1cc2c(cc1OCc1ccccc1)C=CN(C(=O)c1ccccc1)C2C#N (stereo unspecified)
outcome: inactive

CC(C)CCCC(C)[C@H]1CCC2[C@@H]1CC[C@@H]1[C@@]3(C)CC[C@H](CCC=C(c4cc(Cl)c(OCC(=O)O)c(C(=O)O)c4)c4cc(Cl)c(OCC(=O)O)c(C(=O)O)c4)C[C@@H]3CC[C@@]21C (stereo partly specified)
EC50: > 200 µM
IC50: 1.7 µM

Cc1cccc(CC(C)(C)C)c1NC(=O)C(=O)C(C(=O)c1ccc2ccccc2c1)C1OC(=O)c2ccccc21 (stereo unspecified)
EC50: > 126 µM
IC50: 56.2 µM

CCCNC(=O)N1CC(CN2CCN(c3ccccc3)CC2)O/C1=N/C(=O)Nc1ccccc1 (stereo unspecified)
EC50: > 200 µM
IC50: 77.6 µM

O=C(NCO)NCOCn1c(=O)n(CO)c(=O)n(CO)c1=O
EC50: > 407 µM
IC50: 70.8 µM

CC1C2CC(C(S(=O)(=O)O)C2=O)C1(C)C (stereo unspecified)
EC50: > 1000 µM
IC50: > 1000 µM

CC(=O)NC(Cc1ccc2ccccc2c1)C(=O)NC(Cc1ccc(Cl)cc1)C(=O)NC(Cc1cccnc1)C(=O)NC(CO)C(=O)NC(Cc1ccc(O)cc1)C(=O)NC(CCCN=C(N)N)C(=O)NC(CC(C)C)C(=O)NC(CCCN=C(N)N)C(=O)N1CCCC1C(=O)NC(C)C(N)=O (stereo unspecified) (Ac-[2Nal][Phe(4-Cl)][3Pal]SYRLRPA-NH2; configuration not given here)
EC50: > 61.7 µM
IC50: 15.1 µM

CC1C=CN(N(C)C)C2=C1C(=O)c1cnccc1C2=O (stereo unspecified)
EC50: > 20 µM
IC50: 1.23 µM

O=C(NI1OC(=O)c2ccccc21)c1ccc(Cl)cc1
EC50: > 151 µM
IC50: 85.1 µM

COc1ccc2c(c1)OC(c1ccccc1O)CC2=O (stereo unspecified)
EC50: > 186 µM
IC50: 30.2 µM

CS(=O)(=O)c1ccc(SSc2ccc(S(C)(=O)=O)cc2[N+](=O)[O-])c([N+](=O)[O-])c1
outcome: inactive
